This note sets out measurements from patent publication US9833454B2, “Difluoromethoxy compound with low bioactivation potential for the reduction of beta-amyloid production” (BRISTOL-MYERS SQUIBB COMPANY, priority 2014, dated 2017).

Values joined by “and” are separate entries in the source; they are usually repeats but may differ in a detail not shown here. Identical values can stand only once.

For this assay, the target named is CYP2D6 (Homo sapiens, UniProt P10635). The assay can be described thus: biochemical.
Chain of CYP2D6 (P10635 whole entry): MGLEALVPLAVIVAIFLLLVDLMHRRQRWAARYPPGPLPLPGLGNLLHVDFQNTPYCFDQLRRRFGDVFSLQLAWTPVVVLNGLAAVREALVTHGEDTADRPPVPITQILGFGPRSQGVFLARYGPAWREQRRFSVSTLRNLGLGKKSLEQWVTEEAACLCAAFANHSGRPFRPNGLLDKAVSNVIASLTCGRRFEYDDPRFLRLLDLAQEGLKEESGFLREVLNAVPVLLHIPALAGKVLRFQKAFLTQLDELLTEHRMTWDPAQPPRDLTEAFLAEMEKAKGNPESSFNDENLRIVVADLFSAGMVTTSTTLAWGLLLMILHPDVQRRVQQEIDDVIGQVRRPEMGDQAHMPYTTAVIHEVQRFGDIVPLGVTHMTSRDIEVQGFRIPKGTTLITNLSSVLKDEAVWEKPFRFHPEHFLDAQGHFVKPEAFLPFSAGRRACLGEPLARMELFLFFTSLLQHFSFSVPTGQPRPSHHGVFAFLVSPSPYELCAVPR

As a reminder, the IC50 is the midpoint of a concentration-inhibition curve. High values mean lower potency, low ones higher potency. `COCC(=O)O[C@]1(CCN(C)CCCc2nc3ccccc3[nH]2)CCc2cc(F)ccc2[C@@H]1C(C)C` [Mibefradil, reference compound]: the IC50 was 1320 nM and 440 nM.
